# Experimental data published in patent US6357163B1, “Use of nucleic acid analogues in diagnostics and analytical procedures” (priority 1991, dated 2002).
# Where “and” joins values, the source holds several entries; their conditions need not be identical. Equal entries are not always repeated.
# Tests used:
# [1] = tested on: A10 (5′-GATCCAAAAAAAAAAG); type: binding
# [2] = tested on: A9G (5′-TCGACAAAAAGAAAAG); assay: Binding of 5′-32P-endlabeled oligonucleotide to PNA-Sepharose; conditions: DNA A9G; PNA on solid support (CNBr-Sepharose); 16 hr at 20° C. in TE
# [3] = tested on: A8G2 (5′-GAAGAAGAAACTGAC); assay: as above; conditions: DNA A8G2; PNA on solid support (CNBr-Sepharose); 16 hr at 20° C. in TE
# [4] = tested on: mix (5′-GATCACGCGTATACGCGT); assay: as above; conditions: DNA mix; PNA on solid support (CNBr-Sepharose); 16 hr at 20° C. in TE
# 5′-AAA-AAA-AA = assay: Melting temperature (Tm) of hybrid with oligodeoxyribonucleotide; type: binding; conditions: oligo 1 (5′-AAA-AAA-AA), 10 mM phosphate, 1 mM EDTA, pH 7.2
# Excerpt: (§1) 2. Upon formation of DNA duplexes (dsDNA) from single strand DNA, the extinction coefficient decreases (hypochromicity). Thus, the denaturing of DNA can be followed by measuring changes in the absorbance, for example, as a function of […], the temperature where 50% of a duplex has disappeared to give single strands.
# (§2) Duplexes were formed from the single-stranded oligodeoxyribonucleotides and the PNAs listed below. Typically 0.3 OD260 of the T-rich strand was hybridized with 1 equivalent of the other strand by heating to 90° C. for 5 min, cooling to room temperature and kept for 30 min and finally stored in a refrigerator at 5° C. for at least 30 min. The buffers used were all 10 mM in phosphate and 1 mM in EDTA. The low salt buffer contained no sodium chloride, whereas the medium salt buffer contained 140 mM NaCl and the high salt buffer 500 mM NaCl. The pH of all the buffers was 7.2. The melting temperature of the hybrids were determined on a Gilford Response apparatus. The following extinction coefficients were used A: 15.4 ml/μmol.cm; T: 8.8; G: 11.7 and C: 7.3 for both normal oligonucleotides and PNA. The melting curves were recorded in steps of 0.5 C/min. The Tm were determined from the maximum of the 1st derivative of the plot of A260 vs temperature.
# 1. 5′-AAA-AAA-AA (See SEQ ID NO:12)
# [5] = tested on: 32P-dsDNA (A10/T10) target, pT10 fragment; assay: Stability of PNA-dsDNA complexes; type: binding; conditions: PNA bound to A10/T10 dsDNA target; heated 10 min with competing GATCCA10G, S1 nuclease
# Method: Complexes between PNA-Tn and ^32P-dsDNA (A10/T10) target were formed (60 min, 37° C.). The complexes were then incubated at the desired temperature in the presence of excess oligo-dA10 for 10 min, cooled to RT and probed with KMnO4.
# A mixture of 200 cps ^32P-pT10 fragment (as in Example 65), 0.5 μg calf thymus DNA and 300 ng of the desired PNA (either T10-LysNH2, T8-LysNH2 or T6-LysNH2) was incubated in 100 μl 200 mM NaCl, 50 mM Na-acetate, pH 4.5, 1 mM ZnSO4 for 60 min at 37° C. A 2 μg portion of oligonucleotide GATCCA10G was added to compete with the PNA for the labelled oligonucleotide and each sample was heated for 10 min at the temperature indicated, cooled in ice for 10 min and warmed to 20° C. 50 U of S1 nuclease was added and the quantity of radio-activity liberated as single nucleotides was measured.
# (dA)5(dG)(dA)4 = assay: Melting temperature (Tm) of hybrid with oligodeoxyribonucleotide; type: binding; conditions: oligo 4 (5′-AAA-AAG-AAA-A), 10 mM phosphate, 1 mM EDTA, pH 7.2; for Tm, Medium Salt: 140 mM NaCl; for Tm, High Salt: 500 mM NaCl; for Tm, Low Salt: no sodium chloride
# Excerpt: as §1, §2
# 5′-AAG-AAG-AAA-A = assay: as above; type: binding; conditions: oligo 5 (5′-AAG-AAG-AAA-A); 10 mM phosphate, 1 mM EDTA, 140 mM NaCl, pH 7.2
# Excerpt: as §1, §2
# 5. 5′-AAG-AAG-AAA-A (See SEQ ID NO:9)
# 5′-AAA-AGA-AGA-A = assay: as above; type: binding; conditions: oligo 7 (5′-AAA-AGA-AGA-A); 10 mM phosphate, 1 mM EDTA, 140 mM NaCl, pH 7.2
# Excerpt: as §1, §2
# 7. 5′-AAA-AGA-AGA-A (See SEQ ID NO:13)
# (dA)10 = assay: as above; type: binding; conditions: for Tm, Medium Salt / Tm, High Salt / Tm, Low Salt: oligo 2 (5′-AAA-AAA-AAA-A), 10 mM phosphate, 1 mM EDTA, pH 7.2; for Tm, Medium Salt: 140 mM NaCl; for Tm, High Salt: 500 mM NaCl; for Tm, Low Salt: no sodium chloride; for Tm: DNA (dA)10
# Excerpt: as §1, §2
# 32P-end-labelled dA10 = assay: Binding to dA10, gel retardation (PAGE); conditions: for binding to the corresponding dA10: summary statement, illustrated by gel retardation and Tm
# Method: (§3) 1. As shown in Example 56 below PNA-oligonucleotide complexes will migrate slower than the single stranded oligonucleotide upon electrophoresis in polyacrylamide gels. Consequently, such experiments were performed with Acr^1-(Taeg)10-Lys-NH2 and ^32P-end-labelled dA10.
# The sample was cooled in ice (15 min) and analyzed by gel electrophoresis in polyacrylamide (PAGE). To 10 μl of the sample was added 2 μl 50% glycerol, 5μl TBE (TBE=90 mM Tris-borate, 1 mM EDTA, pH 8.3), and the sample was analysed by PAGE (15% acrylamide, 0.5% bisacrylamide) in TBE buffer at 4° C. A 10 μl portion of the sample was lyophilized and redissolved in 10 μl 80% formamide, 1 TBE, heated to 90° C. (5 min), and analyzed by urea/PAGE (15% acrylamide, 0.5% bisacrylamide, 7 M urea) in TBE. [^32P]-containing DNA bands were visualized by autoradiography using intensifying screens and Agfa Curix RPI X-ray films exposed at −80° C. for 2 h.
# Oligonucleotides were synthesized on a Biosearch 7500 DNA synthesizer, labelled with γ[^32P]-ATP (Amersham, 5000 Ci/mmol) and polynucleotide kinase, and purified by PAGE using standard techniques (Maniatis et al. (1986): A laboratory manual, Cold Spring Harbor Laboratories).
# (§4) In FIG. 11a and in FIG. 11b, the 5′-^32P-labelled oligonucleotide 1 is 5′-GATCCA10G. This was incubated in the absence (lanes 1 and 4) or presence of Acr-T10-Lys-NH2 (in lanes 2 and 5, 25 pmol; lanes 3 and 6, 75 pmol) and also in the absence (lanes 1 to 3) or presence (lanes 4 to 6) of “oligo-2” which was 5′-GATCCT10G. 5′-^32P-labelled oligo 2 was incubated in the absence (lane 7) or presence of the same PNA (lane 8, 25 pmol; lane 9, 75 pmol) and analysed by PAGE as described above in detail.
# The results in FIG. 11a show retardation of the ssDNA as it is hybridised by PNA (lanes 1 to 3) and the ability of PNA to compete with a DNA oligonucleotide, for labelled complementary oligonucleotide (lanes 4 to 6). The intensity of the band attributable to dsDNA grows faster as the PNA concentration is raised and is replaced by a band representing the slower moving PNA-DNA hybride. […]
# 32P-end-labelled dT10 = assay: Gel retardation (PAGE), control experiment; type: binding; conditions: same conditions
# Method: as §3, §4
# The results in FIG. 11a show retardation of the ssDNA as it is hybridised by PNA (lanes 1 to 3) and the ability of PNA to compete with a DNA oligonucleotide, for labelled complementary oligonucleotide (lanes 4 to 6). The intensity of the band attributable to dsDNA grows faster as the PNA concentration is raised and is replaced by a band representing the slower moving PNA-DNA hybride.
# RNA-A (poly rA) = assay: Melting of PNA-RNA hybrid; type: binding; conditions: hybrid with RNA-A (poly rA); cannot be measured
# Method: (§5) The hybrid formed between RNA-A (poly rA) and PNA-T10-Lys-NH2 melts at such high temperature that it cannot be measured (>90 C). […] Thereafter the sample is heated to 90° C. for 5 min, cooled to room temperature and kept at this temperature for 30 minutes and finally stored at 5° C. for 30 min.
# RNA-A = assay: Drop in A260 on mixing PNA with RNA; type: binding
# Method: as §5
# RNA-C = assay: Drop in A260 on mixing PNA with RNA; type: binding
# Method: as §5
# RNA-G = assay: Drop in A260 on mixing PNA with RNA; type: binding
# Method: as §5
# RNA-U = assay: Drop in A260 on mixing PNA with RNA; type: binding
# Method: as §5
# [6] = tested on: A10 target in plasmid pA10KS / pT10KS, transcription by RNA polymerase; assay: Inhibition of transcription by PNA; type: biochemical
# Method: RNA transcripts were visualized by autoradiography. The plasmid used was: Lane 1 to 5; pA10KS (the A10 target is positioned on the transcribed strand). Lane 6 to 10: pT10KS (the A10 target is positioned on the non-transcribed strand). The plasmid was treated with the following restriction enzymes prior to the experiment: Lanes 1, 4, 6 and 9: PyuII; lanes 2, 5, 7 and 10: Xha I; lanes 3 and 8: BamHI. […] If the PNA is bound to the non-transcribed strand of the plasmid, transcription is not arrested.
# 5′-AAA-AAA-AAA-AAA-AAA = assay: Melting temperature (Tm) of hybrid with oligodeoxyribonucleotide; type: binding; conditions: oligo 14 (5′-AAA-AAA-AAA-AAA-AAA); 10 mM phosphate, 1 mM EDTA, 140 mM NaCl, pH 7.2
# Excerpt: as §1, §2
# 14. 5′-AAA-AAA-AAA-AAA-AAA (See SEQ ID NO:20)
# [7] = A260 before mixing 0.600, heated to 90° C. for 5 min, cooled
substance,measurement,setting,value
TTC-TTC-TTT-T-Lys-NH2 [T8C2],% Binding of 32P-oligo to PNA-Sepharose,[1],15%
same,% Binding of 32P-oligo to PNA-Sepharose,[2],52%
same,% Binding of 32P-oligo to PNA-Sepharose,[3],42%
same,% Binding of 32P-oligo to PNA-Sepharose,[4],14%
TTT-TTT-TT-Lys-NH2 [b],"Tm, Medium Salt",5′-AAA-AAA-AA; 140 mM NaCl,51.5 °C
same,"Tm, High Salt",5′-AAA-AAA-AA; 500 mM NaCl,50.0 °C
same,"Tm, Low Salt",5′-AAA-AAA-AA; no sodium chloride,56.0 °C
same,Tm of PNA/DNA complex,[5],60 °C
TTT-TTC-TTT-T-Lys-NH2,"Tm, Medium Salt",(dA)5(dG)(dA)4,72.0 °C
same,"Tm, High Salt",(dA)5(dG)(dA)4,72.5 °C
same,"Tm, Low Salt",(dA)5(dG)(dA)4,74.5 °C
same,"Tm, Medium Salt",5′-AAG-AAG-AAA-A,57.5 °C
same,"Tm, Medium Salt",5′-AAA-AGA-AGA-A,58.0 °C
same,% Binding of 32P-oligo to PNA-Sepharose,[2],50%
same,% Binding of 32P-oligo to PNA-Sepharose,[3],45%
same,% Binding of 32P-oligo to PNA-Sepharose,[4],13%
Acr-TTT-TTT-TTT-T-Lys-NH2 [e],"Tm, Medium Salt",(dA)10,86.0 °C
same,"Tm, High Salt",(dA)10,˜90 °C
same,"Tm, Low Salt",(dA)10,84.5 °C
same,migration of 32P-end-labelled dA10 in polyacrylamide gel,32P-end-labelled dA10; native and denaturing gel conditions,retarded migration
same,binding to the corresponding dA10,32P-end-labelled dA10,very efficient binding
same,migration of 32P-end-labelled dT10 in polyacrylamide gel,32P-end-labelled dT10,no retardation
Ac-TTT-TTT-TTT-T-Lys-NH2 [f],"Tm, Medium Salt",(dA)10,74 °C
same,"Tm, Medium Salt",(dA)5(dG)(dA)4,62.0 °C
same,"Tm, Medium Salt",5′-AAG-AAG-AAA-A,46.5 °C
same,"Tm, Medium Salt",5′-AAA-AGA-AGA-A,43.5 °C
TTT-TTT-TTT-T-Lys-NH2 [H-T10-LysNH2],Tm,(dA)10; Example 55,73 °C and 73 °C °C
same,Tm,(dA)10; Example 61,73 °C °C
same,"Tm, Medium Salt",(dA)10,72.5 °C
same,"Tm, High Salt",(dA)10,73.0 °C
same,"Tm, Low Salt",(dA)10,73.0 °C
same,"Tm, Medium Salt",(dA)5(dG)(dA)4,59.0 °C
same,"Tm, High Salt",(dA)5(dG)(dA)4,61.5 °C
same,"Tm, Low Salt",(dA)5(dG)(dA)4,60.0 °C
same,"Tm, Medium Salt",5′-AAG-AAG-AAA-A,47.0 °C
same,"Tm, Medium Salt",5′-AAA-AGA-AGA-A,46.0 °C
same,melting temperature of hybrid,RNA-A (poly rA),> 90 C
same,A260 After Mixing,RNA-A; A260 before mixing 0.600,0.389
same,A260 After Mixing and Heating,RNA-A; [7],0.360
same,A260 After Mixing,RNA-C; A260 before mixing 0.600,0.540
same,A260 After Mixing and Heating,RNA-C; [7],0.532
same,A260 After Mixing,RNA-G; A260 before mixing 0.600,0.514
same,A260 After Mixing and Heating,RNA-G; [7],0.517
same,A260 After Mixing,RNA-U; A260 before mixing 0.600,0.538
same,A260 After Mixing and Heating,RNA-U; [7],0.528
same,% Binding of 32P-oligo to PNA-Sepharose,[1],51%
same,% Binding of 32P-oligo to PNA-Sepharose,[2],11%
same,% Binding of 32P-oligo to PNA-Sepharose,[3],11%
same,% Binding of 32P-oligo to PNA-Sepharose,[4],11%
same,Tm of PNA/DNA complex,[5],> 70 °C
same,binding to the corresponding dA10,32P-end-labelled dA10,very efficient binding
same,transcription of RNA,[6]; PNA bound to the non-transcribed strand (pT10KS),not arrested
same,transcription of RNA,[6]; PNA bound to the transcribed strand (pA10KS),arrested at the PNA binding site
5′-TTT-TTT-TTT-TTT-TTT [Oligo 13],"Tm, Medium Salt",5′-AAA-AAA-AAA-AAA-AAA,39.0 °C
